Experimental data taken from ChEMBL document CHEMBL1201862, “PubChem BioAssay data set” (2004).
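96-well plates; 48 h exposure; 5 concentrations. Endpoints by linear interpolation between flanking doses. Not reached: highest tested concentration assigned. Here, GI50 denotes the concentration required for 50% inhibition of growth.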 Active and inactive are the calls of the source. No stated cut-off is given here; in the data, active = GI50 up to about 1.1 µM and inactive = higher.

Assays:
Experiment in all cases: growth of human tumour cells (NCI), 48 h
SW-620 = test system: SW-620
KM-20L2 = test system: KM-20L2
DMS-114 = test system: DMS-114
A498 = test system: A498
A549 = test system: A549
HCT-116 = test system: HCT-116
SF-539 = test system: SF-539
HCC 2998 = test system: HCC 2998
K562 = test system: K562
ACHN = test system: ACHN
MOLT-4 = test system: MOLT-4
786-0 = test system: 786-0
RPMI-8226 = test system: RPMI-8226
NCI-H226 = test system: NCI-H226
M19-MEL = test system: M19-MEL
COLO 205 = test system: COLO 205
OVCAR-8 = test system: OVCAR-8
DLD-1 = test system: DLD-1
SN12C = test system: SN12C
UACC-257 = test system: UACC-257
HOP-92 = test system: HOP-92
NCI-H460 = test system: NCI-H460
NCI-H522 = test system: NCI-H522
OVCAR-5 = test system: OVCAR-5
M14 = test system: M14
OVCAR-3 = test system: OVCAR-3
RXF 393 = test system: RXF 393
KM12 = test system: KM12
SK-MEL-5 = test system: SK-MEL-5
OVCAR-4 = test system: OVCAR-4
HT-29 = test system: HT-29
SNB-75 = test system: SNB-75
SK-MEL-28 = test system: SK-MEL-28
HOP-62 = test system: HOP-62
SF-295 = test system: SF-295
UO-31 = test system: UO-31
LXFL 529 = test system: LXFL 529
HCT-15 = test system: HCT-15
LOX IMVI = test system: LOX IMVI
DMS-273 = test system: DMS-273
NCI-H23 = test system: NCI-H23
SK-MEL-2 = test system: SK-MEL-2
TK-10 = test system: TK-10
SR = test system: SR
U-251 = test system: U-251
SNB-78 = test system: SNB-78
SK-OV-3 = test system: SK-OV-3
CCRF-CEM = test system: CCRF-CEM
IGROV-1 = test system: IGROV-1
CAKI-1 = test system: CAKI-1
HOP-18 = test system: HOP-18
UACC-62 = test system: UACC-62
SF-268 = test system: SF-268
HL-60 = test system: HL-60
XF498 = test system: XF498
EKVX = test system: EKVX
SNB-19 = test system: SNB-19
Malme-3M = test system: Malme-3M

**Q.** Which GI50 (SW-620) does the source give for c1ccc2cc(C3NCCc4nc[nH]c43)ccc2c1 (stereo not drawn) here?
**A.** 61.8 µM (inactive)

**Q.** What about the GI50 (KM-20L2) of the same molecule?
**A.** 42.7 µM (inactive)

**Q.** And the GI50 (DMS-114)?
**A.** 35.6 µM (inactive)

**Q.** What about the GI50 (A498) of the same molecule?
**A.** 25.9 µM (inactive)

**Q.** And the GI50 (A549)?
**A.** > 100 µM (inactive)

**Q.** And the GI50 (HCT-116)?
**A.** 67.3 µM (inactive)

**Q.** What about the GI50 (SF-539) of the same molecule?
**A.** 89.1 µM (inactive)

**Q.** What about the GI50 (HCC 2998) of the same molecule?
**A.** 59.6 µM (inactive)

**Q.** And the GI50 (K562)?
**A.** 29.6 µM (inactive)

**Q.** What about the GI50 (ACHN) of the same molecule?
**A.** 23.5 µM (inactive)

**Q.** And the GI50 (MOLT-4)?
**A.** 25.1 µM (inactive)

**Q.** What about the GI50 (786-0) of the same molecule?
**A.** 41.3 µM (inactive)

**Q.** And the GI50 (RPMI-8226)?
**A.** 45.5 µM (inactive)

**Q.** What about the GI50 (NCI-H226) of the same molecule?
**A.** > 100 µM (inactive)

**Q.** And the GI50 (M19-MEL)?
**A.** 29.9 µM (inactive)

**Q.** What about the GI50 (COLO 205) of the same molecule?
**A.** 24.9 µM (inactive)

**Q.** And the GI50 (OVCAR-8)?
**A.** 89.7 µM (inactive)

**Q.** What about the GI50 (DLD-1) of the same molecule?
**A.** 62.2 µM (inactive)

**Q.** And the GI50 (SN12C)?
**A.** 97.5 µM (inactive)

**Q.** And the GI50 (UACC-257)?
**A.** 26.7 µM (inactive)

**Q.** And the GI50 (HOP-92)?
**A.** 49.3 µM (inactive)

**Q.** What about the GI50 (NCI-H460) of the same molecule?
**A.** 52 µM (inactive)

**Q.** And the GI50 (NCI-H522)?
**A.** 34 µM (inactive)

**Q.** What about the GI50 (OVCAR-5) of the same molecule?
**A.** > 100 µM (inactive)

**Q.** And the GI50 (M14)?
**A.** 39.9 µM (inactive)

**Q.** What about the GI50 (OVCAR-3) of the same molecule?
**A.** 61.2 µM (inactive)

**Q.** What about the GI50 (RXF 393) of the same molecule?
**A.** 61.1 µM (inactive)

**Q.** What about the GI50 (KM12) of the same molecule?
**A.** 17.3 µM (inactive)

**Q.** And the GI50 (SK-MEL-5)?
**A.** 19.1 µM (inactive)

**Q.** And the GI50 (OVCAR-4)?
**A.** 57 µM (inactive)

**Q.** What about the GI50 (HT-29) of the same molecule?
**A.** 41.7 µM (inactive)

**Q.** What about the GI50 (SNB-75) of the same molecule?
**A.** 46.2 µM (inactive)

**Q.** And the GI50 (SK-MEL-28)?
**A.** > 100 µM (inactive)

**Q.** And the GI50 (HOP-62)?
**A.** > 100 µM (inactive)

**Q.** What about the GI50 (SF-295) of the same molecule?
**A.** 68.5 µM (inactive)

**Q.** What about the GI50 (UO-31) of the same molecule?
**A.** 35.8 µM (inactive)

**Q.** What about the GI50 (LXFL 529) of the same molecule?
**A.** 54.2 µM (inactive)

**Q.** And the GI50 (HCT-15)?
**A.** 42.6 µM

**Q.** What about the GI50 (LOX IMVI) of the same molecule?
**A.** 71.6 µM (inactive)

**Q.** What about the GI50 (DMS-273) of the same molecule?
**A.** 69.2 µM (inactive)

**Q.** And the GI50 (NCI-H23)?
**A.** > 100 µM (inactive)

**Q.** What about the GI50 (SK-MEL-2) of the same molecule?
**A.** 72.8 µM (inactive)

**Q.** What about the GI50 (TK-10) of the same molecule?
**A.** 28 µM (inactive)

**Q.** And the GI50 (SR)?
**A.** 54.2 µM (inactive)

**Q.** What about the GI50 (U-251) of the same molecule?
**A.** 90.8 µM (inactive)

**Q.** And the GI50 (SNB-78)?
**A.** > 100 µM (inactive)

**Q.** What about the GI50 (SK-OV-3) of the same molecule?
**A.** > 100 µM (inactive)

**Q.** What about the GI50 (CCRF-CEM) of the same molecule?
**A.** 35.6 µM (inactive)

**Q.** And the GI50 (IGROV-1)?
**A.** > 100 µM (inactive)

**Q.** And the GI50 (CAKI-1)?
**A.** 60.3 µM (inactive)

**Q.** What about the GI50 (HOP-18) of the same molecule?
**A.** 47 µM (inactive)

**Q.** And the GI50 (UACC-62)?
**A.** 55.7 µM (inactive)

**Q.** And the GI50 (SF-268)?
**A.** > 100 µM (inactive)

**Q.** Nn1c(S)nnc1N/N=C1/C(=O)Nc2ccccc21 was tested. Which GI50 (SW-620) did it give?
**A.** 78.2 µM (inactive)

**Q.** What about the GI50 (KM-20L2) of the same molecule?
**A.** > 100 µM (inactive)

**Q.** What about the GI50 (DMS-114) of the same molecule?
**A.** > 100 µM (inactive)

**Q.** What about the GI50 (A498) of the same molecule?
**A.** 92.3 µM (inactive)

**Q.** And the GI50 (A549)?
**A.** 83.2 µM (inactive)

**Q.** And the GI50 (HCT-116)?
**A.** 53.1 µM (inactive)

**Q.** And the GI50 (HL-60)?
**A.** 94.4 µM (inactive)

**Q.** And the GI50 (SF-539)?
**A.** 94 µM (inactive)

**Q.** And the GI50 (HCC 2998)?
**A.** > 100 µM (inactive)

**Q.** What about the GI50 (K562) of the same molecule?
**A.** 59 µM (inactive)

**Q.** What about the GI50 (ACHN) of the same molecule?
**A.** 83.8 µM (inactive)

**Q.** What about the GI50 (MOLT-4) of the same molecule?
**A.** 30.7 µM (inactive)

**Q.** And the GI50 (786-0)?
**A.** > 100 µM (inactive)

**Q.** What about the GI50 (XF498) of the same molecule?
**A.** 37.9 µM (inactive)

**Q.** And the GI50 (RPMI-8226)?
**A.** 63.2 µM (inactive)

**Q.** What about the GI50 (NCI-H226) of the same molecule?
**A.** 42.1 µM (inactive)

**Q.** What about the GI50 (M19-MEL) of the same molecule?
**A.** > 100 µM (inactive)

**Q.** What about the GI50 (COLO 205) of the same molecule?
**A.** > 100 µM (inactive)

**Q.** What about the GI50 (OVCAR-8) of the same molecule?
**A.** 49.5 µM (inactive)

**Q.** What about the GI50 (DLD-1) of the same molecule?
**A.** 48.9 µM (inactive)

**Q.** What about the GI50 (SN12C) of the same molecule?
**A.** 50.6 µM (inactive)

**Q.** What about the GI50 (UACC-257) of the same molecule?
**A.** > 100 µM (inactive)

**Q.** What about the GI50 (HOP-92) of the same molecule?
**A.** 56.1 µM (inactive)

**Q.** And the GI50 (NCI-H460)?
**A.** 54.7 µM (inactive)

**Q.** And the GI50 (NCI-H522)?
**A.** 44.9 µM (inactive)

**Q.** What about the GI50 (OVCAR-5) of the same molecule?
**A.** > 100 µM (inactive)

**Q.** And the GI50 (EKVX)?
**A.** > 100 µM (inactive)

**Q.** What about the GI50 (M14) of the same molecule?
**A.** 62.1 µM (inactive)

**Q.** What about the GI50 (OVCAR-3) of the same molecule?
**A.** 80.4 µM (inactive)

**Q.** What about the GI50 (RXF 393) of the same molecule?
**A.** 27.7 µM (inactive)

**Q.** And the GI50 (KM12)?
**A.** 92.3 µM (inactive)

**Q.** And the GI50 (SNB-19)?
**A.** 55.2 µM (inactive)

**Q.** And the GI50 (OVCAR-4)?
**A.** 42.1 µM (inactive)

**Q.** And the GI50 (HT-29)?
**A.** > 100 µM (inactive)

**Q.** What about the GI50 (SK-MEL-28) of the same molecule?
**A.** 33.7 µM (inactive)

**Q.** And the GI50 (HOP-62)?
**A.** 64.9 µM (inactive)

**Q.** What about the GI50 (SF-295) of the same molecule?
**A.** 82.8 µM (inactive)

**Q.** And the GI50 (UO-31)?
**A.** 47 µM (inactive)

**Q.** And the GI50 (LXFL 529)?
**A.** 39.5 µM (inactive)

**Q.** And the GI50 (HCT-15)?
**A.** 57.7 µM

**Q.** And the GI50 (LOX IMVI)?
**A.** 35.4 µM (inactive)

**Q.** And the GI50 (NCI-H23)?
**A.** 16.9 µM (inactive)

**Q.** And the GI50 (SK-MEL-2)?
**A.** > 100 µM (inactive)

**Q.** And the GI50 (TK-10)?
**A.** > 100 µM (inactive)

**Q.** And the GI50 (SR)?
**A.** 39.6 µM (inactive)

**Q.** And the GI50 (U-251)?
**A.** 58.3 µM (inactive)

**Q.** What about the GI50 (SNB-78) of the same molecule?
**A.** > 100 µM (inactive)

**Q.** What about the GI50 (SK-OV-3) of the same molecule?
**A.** 43.7 µM (inactive)

**Q.** What about the GI50 (Malme-3M) of the same molecule?
**A.** > 100 µM (inactive)

**Q.** And the GI50 (CCRF-CEM)?
**A.** 47.3 µM (inactive)

**Q.** And the GI50 (IGROV-1)?
**A.** 59.2 µM (inactive)

**Q.** What about the GI50 (CAKI-1) of the same molecule?
**A.** 52.6 µM (inactive)

**Q.** And the GI50 (HOP-18)?
**A.** 70.5 µM (inactive)

**Q.** What about the GI50 (UACC-62) of the same molecule?
**A.** 71.8 µM (inactive)

**Q.** And the GI50 (SF-268)?
**A.** 56 µM (inactive)
